Results taken from US20220265629A1, “TREATMENT OF SYSTOLIC DYSFUNCTION AND HEART FAILURE WITH REDUCED EJECTION FRACTION WITH THE COMPOUND (R)-4-(1-((3-(DIFLUOROMETHYL)-1-METHYL-1H-PYRAZOL-4-YL)SULFONYL)-1-FLUOROETHYL)-N-(ISOXAZOL-3-YL)PIPERIDINE-1-CARBOXAMIDE” (MyoKardia, Inc., priority 2019, published 2022).
Where two headings read alike, the source gives them in different places.

Experiment: Single ascending oral dose study in healthy volunteers: plasma pharmacokinetics
Format: in vivo, human
Settings: human, plasma, oral; for concentration at 6 h: 6 Hours Postdose; for concentration at 12 h: 12 Hours Postdose; for concentration at 24 h: 24 Hours Postdose; for concentration at 48 h: 48 Hours Postdose; for concentration at 72 h: 72 Hours Postdose
Excerpt: This example describes the first-in-human study of Compound I. Based on its mechanism of action, Compound I may offer a targeted therapy for patients with DCM caused by genetic or nongenetic mechanisms. The study was a randomized, double-blind, placebo-controlled, sequential group, single-ascending (oral) close study in healthy subjects aged 18-55 years. Eight dosing cohorts, each comprising eight healthy subjects, were enrolled. Within each cohort, subjects were randomized 6:2 to Compound I:placebo.
Subjects were resident at the clinical site for up to 5 days and 4 nights, from Day −1 (the day before dosing) to Day 4, and received a single dose of Compound I or placebo on Day 1. ECG telemetry was initiated 1 hour preclose and continued through 48 hours postclose (Day 3). Any subject with a preclose resting HR≥80 beats per minute was considered ineligible and not treated. […] Subjects returned for a safety follow-up visit 7 days (±1 day) after dosing.
All randomized study subjects received either Compound I or matching placebo as a single oral dose after a fasting period of at least 6 hours. Compound I drug substance is a crystalline, free-base, synthetic molecule with a molecular weight of 435.4 g/mol.
Compound I was provided as a powder for oral suspension. Placebo was provided as calcium carbonate powder. Both treatments were closed orally as a suspension. The suspension was made using Ora-Plus® suspending vehicle (Perrigo) and a cherry syrup flavoring vehicle (Humco), mixed 50% to 50%. The suspension was followed by approximately 100 mL water. The suspension was made up within 14 days from the time in which it was closed which was consistent with the stability data on the suspension. The suspension was made up so the volume administered to the subjects who received Compound I was the same at 20 mL.
Each subject received a close according to the cohort in which they were enrolled. Cohorts were enrolled sequentially, with each cohort receiving an escalated dose of Compound I. The closes administered were 3 mg, 10 mg, 25 mg, 50 mg, 100 mg, 175 mg, 350 mg, and 525 mg, respectively.
The concentrations of Compound I in human plasma and urine were quantitated by high performance liquid chromatography with tandem mass spectrometric detection (LC MS/MS) (Biological sample analysis study report Alturas AD17-726). Plasma samples were extracted by protein precipitation with acetonitrile containing internal standard MYK-5654. The calibration curves were linear over concentration range of 0.500 to 1000 ng/mL with a lower limit of quantification (LLOQ) of 0.500 ng/mL.
The PK Population included all subjects who received Compound I. Blood samples were collected for PK assessments. The actual timing of the samples may have been modified and/or up to an additional 2 samples may have been requested by the SRC after review of the data from previous cohorts. It was important that PK sampling occurred as closely as possible to the scheduled time (±10%). Both blood and urine samples were used for PK assessments.
In addition, for subjects who received placebo, a single plasma sample near the predicted tmax of Compound I was evaluated to confirm the lack of circulating Compound I. Plasma concentration data for Compound I was summarized using descriptive statistics, including mean, standard deviation (SD), median, minimum, and maximum values, and percent coefficient of variation. Other PK parameters included (but were not limited to) Cmax, tmax, AUC, t1/2, and MRT. Additionally, the apparent terminal-phase terminal half-life was calculated. The close proportionality of AUC and Cmax was explored.

[1] = 100 mg, 100 mg, read-out: Plasma concentration, Geometric Mean
[2] = 100 mg, 100 mg, read-out: Plasma concentration, Mean
[3] = 100 mg, 100 mg, read-out: Plasma concentration, Median
[4] = 175 mg, 175 mg, read-out: Plasma concentration, Geometric Mean
[5] = 175 mg, 175 mg, read-out: Plasma concentration, Mean
[6] = 175 mg, 175 mg, read-out: Plasma concentration, Median

SMILES: Cn1cc(S(=O)(=O)[C@@](C)(F)C2CCN(C(=O)Nc3ccon3)CC2)c(C(F)F)n1 [Compound I, (R)-4-(1-((3-(difluoromethyl)-1-methyl-1H-pyrazol-4-yl)sulfonyl)-1-fluoroethyl)-N-(isoxazol-3-yl)piperidine-1-carboxamide]
- Vd/F (50 mg, read-out: Vz/F, Mean): 87.9 L
- Vd/F (50 mg, read-out: Vz/F, Median): 90.6 L
- concentration at 6 h [1]: 934 ng/mL
- concentration at 6 h [2]: 947 ng/mL
- concentration at 6 h [3]: 935 ng/mL
- concentration at 12 h [1]: 661 ng/mL
- concentration at 12 h [2]: 674 ng/mL
- concentration at 12 h [3]: 637 ng/mL
- concentration at 24 h [1]: 374 ng/mL
- concentration at 24 h [2]: 384 ng/mL
- concentration at 24 h [3]: 372 ng/mL
- concentration at 48 h [1]: 71 ng/mL
- concentration at 48 h [2]: 91.1 ng/mL
- concentration at 48 h [3]: 104 ng/mL
- concentration at 72 h [2]: 23.2 ng/mL
- concentration at 72 h [3]: 24.2 ng/mL
- AUC(0-t) (100 mg, read-out: AUC0-24, Geometric Mean): 15200 ng·h/mL
- AUC(0-t) (100 mg, read-out: AUC0-24, Mean): 15400 ng·h/mL
- AUC(0-t) (100 mg, read-out: AUC0-24, Median): 14900 ng·h/mL
- AUC(0-t) (100 mg, read-out: AUC0-48, Geometric Mean): 21100 ng·h/mL
- AUC(0-t) (100 mg, read-out: AUC0-48, Mean): 21400 ng·h/mL
- AUC(0-t) (100 mg, read-out: AUC0-48, Median): 21600 ng·h/mL
- AUC(0-t) (100 mg, read-out: AUC0-last, Geometric Mean): 21700 ng·h/mL
- AUC(0-t) (100 mg, read-out: AUC0-last, Mean): 22700 ng·h/mL
- AUC(0-t) (100 mg, read-out: AUC0-last, Median): 22400 ng·h/mL
- AUC(0-inf) (100 mg, read-out: AUC0-∞, Geometric Mean): 21300 ng·h/mL
- AUC(0-inf) (100 mg, read-out: AUC0-∞, Mean): 21700 ng·h/mL
- AUC(0-inf) (100 mg, read-out: AUC0-∞, Median): 18700 ng·h/mL
- Cmax (100 mg, read-out: Cmax, Geometric Mean): 1000 ng/mL
- Cmax (100 mg, read-out: Cmax, Mean): 1020 ng/mL
- Cmax (100 mg, read-out: Cmax, Median): 983 ng/mL
- half-life (100 mg, read-out: Half-Life Lambda Z, Geometric Mean (converted)): 11.1 h
- half-life (100 mg, read-out: Half-Life Lambda Z, Mean (converted)): 11.7 h
- half-life (100 mg, read-out: Half-Life Lambda Z, Median (converted)): 12.5 h
- MRT (100 mg, read-out: Mean Residence Time, Geometric Mean): 19.1 h
- MRT (100 mg, read-out: Mean Residence Time, Mean): 19.5 h
- MRT (100 mg, read-out: Mean Residence Time, Median): 20.4 h
- Tmax (100 mg, read-out: Tmax, Geometric Mean): 4.42 h
- Tmax (100 mg, read-out: Tmax, Mean): 4.5 h
- Tmax (100 mg, read-out: Tmax, Median): 5 h
- Vd/F (100 mg, read-out: Vz/F, Geometric Mean): 74.9 L
- Vd/F (100 mg, read-out: Vz/F, Mean): 77.9 L
- Vd/F (100 mg, read-out: Vz/F, Median): 82.1 L
- concentration at 6 h [4]: 1260 ng/mL
- concentration at 6 h [5]: 1270 ng/mL
- concentration at 6 h [6]: 1250 ng/mL
- concentration at 12 h [4]: 1040 ng/mL
- concentration at 12 h [5]: 1050 ng/mL
- concentration at 12 h [6]: 1040 ng/mL
- concentration at 24 h [4]: 650 ng/mL
- concentration at 24 h [5]: 664 ng/mL
- concentration at 24 h [6]: 690 ng/mL
- concentration at 48 h [4]: 203 ng/mL
- concentration at 48 h [5]: 212 ng/mL
- concentration at 48 h [6]: 224 ng/mL
- concentration at 72 h [4]: 64 ng/mL
